pEC50, pIC50, pKi: −log10 of the molar value. Where “and” joins values, the source holds several entries; their conditions need not be identical. Equal values may be shown once. Read-outs that look alike come from different tables or passages of the source.
Assays:
recombinant human SphK2 = biological target: T1, recombinant human SphK2 (Homo sapiens, UniProt Q9NRA0); assay: Fluorometric NBD-sphingosine sphingosine kinase inhibition assay, SphK2; details: for pIC50: IC50 against SphK2
T1 sequence (Q9NRA0 1-654): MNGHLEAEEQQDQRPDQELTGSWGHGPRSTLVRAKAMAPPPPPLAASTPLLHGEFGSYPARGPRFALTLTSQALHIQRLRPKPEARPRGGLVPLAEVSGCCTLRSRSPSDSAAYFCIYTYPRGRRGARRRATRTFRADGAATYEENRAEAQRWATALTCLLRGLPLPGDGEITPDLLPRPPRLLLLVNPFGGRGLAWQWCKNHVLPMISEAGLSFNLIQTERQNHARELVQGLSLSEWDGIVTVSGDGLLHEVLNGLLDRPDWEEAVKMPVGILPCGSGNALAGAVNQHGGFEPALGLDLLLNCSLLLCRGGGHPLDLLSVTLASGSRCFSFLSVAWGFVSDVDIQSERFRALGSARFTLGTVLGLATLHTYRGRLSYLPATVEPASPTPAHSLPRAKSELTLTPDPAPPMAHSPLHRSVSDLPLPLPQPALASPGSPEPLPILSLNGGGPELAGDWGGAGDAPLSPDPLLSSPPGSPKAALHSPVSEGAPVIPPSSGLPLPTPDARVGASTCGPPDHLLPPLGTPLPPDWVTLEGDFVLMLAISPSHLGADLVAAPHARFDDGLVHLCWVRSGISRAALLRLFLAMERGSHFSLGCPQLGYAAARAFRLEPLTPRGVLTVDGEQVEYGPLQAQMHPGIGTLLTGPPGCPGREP
Method: (§1) The fluorescence-based assay involved incubating the quinoline-5,8-diones with SphK isoforms individually (recombinant SphK1 and SphK2 in duplicate) [41].
(§2) The relevant enzymes and inhibitors were incubated in total reaction volumes of 100 µL with 10 µM NBD-sphingosine, 500 µM 4-deoxypyridoxine and 1 mM Mg-ATP in assay buffer (100 mM Tris/HCl (pH 7.4), 150 mM NaCl, 2 mM Na3VO4 and 10 mM NaF) for 30 min at 37 °C. A reaction mixture containing no test SphK inhibitor served as the positive control, while a reaction mixture containing no Mg-ATP served as the negative control. Post-incubation, 100 µL of potassium phosphate buffer, pH 8.5, was added to each Eppendorf, followed by 500 µL of 2:1 Chloroform/Methanol. After brief mixing with a vortex, phases were separated by centrifugation at 2000 rpm for 5 min. […] Data are expressed as mean SD from a minimum of 2 independent experiments. […] From this, the IC50 values of several test inhibitors were calculated.

recombinant human SphK1 = recombinant human SphK1 (Homo sapiens, UniProt Q9NYA1); assay: Fluorometric NBD-sphingosine sphingosine kinase inhibition assay, SphK1; details: for pIC50: IC50 against SphK1; for Selectivity between SphK1 and SphK2 (in words): single-concentration screen, SphK1 versus SphK2
Method: as §1, §2

SphK1 = details: cited from earlier work
SphK2 = details: cited from earlier work
[1] = test system: A498 kidney adenocarcinoma cells; set-up: method as in PMID 22970244; details: read-out: EC50, reduced proliferation; cited from earlier work
NCI-60 cell line panel = assay: NCI60 one-dose anticancer screen; type: cell-based, human; details: 10 μM, mean growth percentage across 60 cell lines
Method: A preliminary anticancer study was conducted through the National Cancer Institute 60 human tumour cell line panel (NCI60) on a representative selection of the aryl-ether quinoline-5,8-diones (Table 2). […].
One-dose study: Tested compounds were initially solubilised in DMSO, diluted into RPMI 1640 and 5% fetal bovine serum/L-glutamine and added to 96-well plates containing cell lines previously cultured for 24 h. After 48 h of incubation, the media were removed, and the cells were fixed and stained with sulforhodamine B to determine overall percent growth/total protein content. Unbound dye was removed with five washes of 1% acetic acid, and the plates were allowed to air dry. The dye was then resolubilised in Tris buffer, and the colourimetric absorbance was measured (515 nm). Growth inhibition was measured relative to the response generated from proliferating cells cultured under identical conditions for 48 h. Data from one-dose experiments pertain to the percentage growth at 10 μM [60, 61].

60 cell lines (NCI) = test system: 60 cell lines (NCI); set-up: method as in NCI cancer-screening platform (NSC796101); details: ref NCI cancer-screening platform (NSC796101); read-out: Mean GI50 across 60 cell lines; cited from earlier work
[2] = test system: head and neck squamous cell carcinoma (SCC) cells; set-up: method as in PMID 29109864; details: cited from earlier work
[3] = read-out: Spk2 % (inhibition), Average, 10 μM, Tables S3-S5
[4] = read-out: Spk2 % (inhibition), replicate A, 10 μM, Tables S3-S5
[5] = read-out: Spk2 % (inhibition), replicate B, 10 μM, Tables S3-S5
[6] = read-out: Spk1 % (inhibition), Average, 10 μM, Tables S3-S5
[7] = read-out: Spk1 % (inhibition), replicate A, 10 μM, Tables S3-S5
[8] = read-out: Spk1 % (inhibition), replicate B, 10 μM, Tables S3-S5
[9] = read-out: SphK1 inhibition, 10 μM compound
[10] = read-out: SphK2 inhibition, 10 μM compound

Chain of recombinant human SphK1 (Q9NYA1 whole entry): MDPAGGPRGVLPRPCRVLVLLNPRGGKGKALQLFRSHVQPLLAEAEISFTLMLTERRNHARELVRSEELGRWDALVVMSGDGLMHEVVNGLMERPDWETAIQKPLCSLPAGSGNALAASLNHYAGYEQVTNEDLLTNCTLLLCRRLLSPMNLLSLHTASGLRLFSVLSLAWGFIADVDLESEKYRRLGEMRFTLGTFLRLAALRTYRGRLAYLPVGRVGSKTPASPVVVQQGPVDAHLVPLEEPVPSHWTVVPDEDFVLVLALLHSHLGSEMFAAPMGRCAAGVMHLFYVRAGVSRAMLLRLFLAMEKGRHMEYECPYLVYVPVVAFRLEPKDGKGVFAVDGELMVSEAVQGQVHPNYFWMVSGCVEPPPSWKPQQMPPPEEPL

Compound	inhibition at 10 µM (recombinant human SphK2; [3]) [%]	inhibition at 10 µM (recombinant human SphK2; [4]) [%]	inhibition at 10 µM (recombinant human SphK2; [5]) [%]	inhibition at 10 µM (recombinant human SphK1; [6]) [%]	inhibition at 10 µM (recombinant human SphK1; [7]) [%]	inhibition at 10 µM (recombinant human SphK1; [8]) [%]	inhibition at 10 µM (recombinant human SphK1; [9]) [%]	inhibition at 10 µM (recombinant human SphK2; [10]) [%]	also measured
O=Cc1ccc2c(n1)C(=O)C(Oc1ccc(F)c(F)c1)=CC2=O [Compound 18, 7-(3,4-Difluorophenoxy)-5,8-dioxo-5,8-dihydroquinoline-2-carbaldehyde]	-16.4	-19.8	-13.7	-22.7	-26.7	-19.2	–	–	–
Cc1ccc2c(n1)C(=O)C(Oc1ccc(Cl)c(Cl)c1)=CC2=O [Compound 8, 7-(3,4-Dichlorophenoxy)-2-methylquinoline-5,8-dione]	37.8	36	39.2	25.3	17	32.1	26	–	–
COc1cccc(OC2=CC(=O)c3ccc(C=O)nc3C2=O)c1 [Compound 14, 7-(3-Methoxyphenoxy)-5,8-dioxo-5,8-dihydroquinoline-2-carbaldehyde]	0.4	-1.7	2	-6.7	-8.6	-4.9	–	–	–
O=C1C=C(Oc2ccc(F)cc2)C(=O)c2nc(CN3CCC[C@@H]3CO)ccc21 [Compound 21, (R)-7-(4-Fluorophenoxy)-2-((2-(hydroxymethyl)pyrrolidin-1-yl)methyl)quinoline-5,8-dione]	43.2	–	43.4	69.7	62	75.8	70	43	–
CC(=O)N(C1=C(Cl)C(=O)c2ccccc2C1=O)C1CCCCC1 [CB5468139]	–	–	–	–	–	–	–	–	pKi (SphK1): 6.52; Concentration up to which SphK2 activity is not affected (SphK2): > 100 µM; pEC50 [1]: 4.82 to 5.00
COc1ccc(OC2=CC(=O)c3ccc(CN4CCC[C@@H]4CO)nc3C2=O)cc1 [Compound 20, (R)-2-((2-(Hydroxymethyl)pyrrolidin-1-yl)methyl)-7-(4-methoxyphenoxy)quinoline-5,8-dione]	81.6	81.2	81.9	63.1	61.7	64.3	63	82	pIC50 (recombinant human SphK2): 4.88 and 4.89; pIC50 (recombinant human SphK1): 4.37 and 4.38
Cc1ccc2c(n1)C(=O)C(Oc1ccc(F)c(Cl)c1)=CC2=O [Compound 10, 7-(3-Chloro-4-fluorophenoxy)-2-methylquinoline-5,8-dione]	-1.9	-4.7	0.3	-7.2	-7.7	-6.5	0	0	–
COc1cccc(OC2=CC(=O)c3ccc(C)nc3C2=O)c1 [Compound 5, 7-(3-Methoxyphenoxy)-2-methylquinoline-5,8-dione]	49.7	50.1	49.3	39.9	37.8	41.5	–	–	Mean Growth (%) (NCI-60 cell line panel): 88.5%
O=Cc1ccc2c(n1)C(=O)C(Oc1ccc(Br)cc1)=CC2=O [Compound 19, 7-(4-Bromophenoxy)-5,8-dioxo-5,8-dihydroquinoline-2-carbaldehyde]	3.2	6.8	0.3	-0.9	-4.1	1.8	–	–	–
O=Cc1ccc2c(n1)C(=O)C(Oc1ccc(F)cc1)=CC2=O [Compound 15, 7-(4-Fluorophenoxy)-5,8-dioxo-5,8-dihydroquinoline-2-carbaldehyde]	22.1	18.1	25.3	11.1	6.2	15.2	–	–	–
Cc1ccc2c(n1)C(=O)C(Oc1ccc(F)c(F)c1)=CC2=O [Compound 9, 7-(3,4-Difluorophenoxy)-2-methylquinoline-5,8-dione]	25.2	27.4	23.5	20.3	14.4	25.1	20	–	–
O=C(NCc1ccncc1)C12CC3CC(C1)CC(c1ccc(Cl)cc1)(C3)C2 [opaganib, reference compound]	–	–	–	–	–	–	–	36	inhibition at 10 µM (recombinant human SphK2; read-out: Spk2 % Inhibition, 10uM, Table S2 assay validation): 35.5%; inhibition at 10 µM (recombinant human SphK1; read-out: Spk1 % Inhibition, 10uM, Table S2 assay validation): -8.6%; Selectivity between SphK1 and SphK2 (in words) (recombinant human SphK1): high SphK2 selectivity; pKi (SphK2; ref 20-24 (b6), 19, 22): 5.01; GI50 (60 cell lines (NCI)): 11.5 µM
Cc1ccc2c(n1)C(=O)C(Oc1ccc(Br)cc1)=CC2=O [Compound 12, 7-(4-Bromophenoxy)-2-methylquinoline-5,8-dione]	–	–	–	–	–	–	–	–	Mean Growth (%) (NCI-60 cell line panel): 90.5%
Cc1ccc2c(n1)C(=O)C(Oc1ccc(CCO)cc1)=CC2=O [Compound 11, 7-(4-(2-Hydroxyethyl)phenoxy)-2-methylquinoline-5,8-dione]	33.1	31.4	34.5	19	17.6	20.1	–	–	–
COc1ccc(OC2=CC(=O)c3ccc(C=O)nc3C2=O)cc1 [Compound 13, 7-(4-Methoxyphenoxy)-5,8-dioxo-5,8-dihydroquinoline-2-carbaldehyde]	39.7	38.1	41.1	14.6	4.3	22.6	–	–	–
COc1ccc(OC2=CC(=O)c3ccc(C)nc3C2=O)cc1 [Compound 4]	36.8	37.5	36.3	69.2	58.5	77.5	69	37	pIC50 (recombinant human SphK2): 5.07 and 5.10; pIC50 (recombinant human SphK1): 4.52; Selectivity between SphK1 and SphK2 (in words) (recombinant human SphK1): a level of selectivity for SphK1; Mean Growth (%) (NCI-60 cell line panel): 84.4%
Cc1ccc2c(n1)C(=O)C(Oc1ccc(C#N)cc1)=CC2=O [Compound 7, 2-Methyl-7-(4-(cyano)phenoxy)quinoline-5,8-dione]	55.6	53.6	57.2	54.7	54.1	55.2	≥ 54	≥ 56	Mean Growth (%) (NCI-60 cell line panel): 97.3%
Cc1cc(CS(=O)(=O)c2ccccc2)cc(OCc2ccc(CN3CCC[C@@H]3CO)cc2)c1 [PF-543]	–	–	–	–	–	–	–	–	inhibition at 0.1 µM (recombinant human SphK2; read-out: Spk2 % Inhibition): 0.7%; Necrotic SCC cells induced by PF-543 ([2]; with addition of ROS scavenger N-acetyl-L-cysteine): 26.3%; Necrotic SCC cells induced by PF-543 ([2]; without ROS scavenger): 48.6%
Cc1ccc2c(n1)C(=O)C(Oc1ccc(F)cc1)=CC2=O [Compound 6, 7-(4-Fluorophenoxy)-2-methylquinoline-5,8-dione]	59.6	58.6	60.4	54.2	53.4	54.8	≥ 54	≥ 56	Mean Growth (%) (NCI-60 cell line panel): 88.2%
